For 24 compounds, Ki results are on record in PMC6009872, “Carbonic anhydrases from Trypanosoma cruzi and Leishmania donovani chagasi are inhibited by benzoxaboroles” (Journal of Enzyme Inhibition and Medicinal Chemistry, 2017).

Structures are written as SMILES.

One experiment has as its target T1, TcCA (Trypanosoma cruzi, UniProt Q4CVY4).
T1 construct: gene Tc00.1047053509597.20
T1 sequence (Q4CVY4 39-638): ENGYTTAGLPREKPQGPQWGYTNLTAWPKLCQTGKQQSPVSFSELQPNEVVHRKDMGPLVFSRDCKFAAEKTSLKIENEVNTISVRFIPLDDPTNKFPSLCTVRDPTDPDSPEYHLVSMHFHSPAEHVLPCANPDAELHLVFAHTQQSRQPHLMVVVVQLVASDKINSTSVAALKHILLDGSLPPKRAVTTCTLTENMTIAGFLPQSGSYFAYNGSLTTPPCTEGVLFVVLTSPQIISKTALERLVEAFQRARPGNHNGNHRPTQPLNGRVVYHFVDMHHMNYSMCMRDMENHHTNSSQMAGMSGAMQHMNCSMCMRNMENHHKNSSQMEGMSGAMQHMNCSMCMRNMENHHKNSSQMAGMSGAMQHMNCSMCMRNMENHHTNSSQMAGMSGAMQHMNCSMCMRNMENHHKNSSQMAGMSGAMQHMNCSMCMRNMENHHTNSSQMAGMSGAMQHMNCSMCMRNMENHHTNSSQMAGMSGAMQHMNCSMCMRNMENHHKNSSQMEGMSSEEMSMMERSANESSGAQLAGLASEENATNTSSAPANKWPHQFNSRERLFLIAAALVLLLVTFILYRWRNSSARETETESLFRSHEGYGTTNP
The experiment in a line: stopped-flow CO2 hydrase assay. The settings on record: 20 mM Hepes pH 7.5, 20 mM Na2SO4, CO2 1.7-17 mM, 15 min preincubation at room temperature. The experiment is classed as biochemical.

A further experiment has as its target T2, LdcCA (Leishmania infantum, UniProt A4HSV2).
T2 construct: gene LINJ_06_0630; organism given as Leishmania donovani chagasi
T2 sequence (A4HSV2 1-306): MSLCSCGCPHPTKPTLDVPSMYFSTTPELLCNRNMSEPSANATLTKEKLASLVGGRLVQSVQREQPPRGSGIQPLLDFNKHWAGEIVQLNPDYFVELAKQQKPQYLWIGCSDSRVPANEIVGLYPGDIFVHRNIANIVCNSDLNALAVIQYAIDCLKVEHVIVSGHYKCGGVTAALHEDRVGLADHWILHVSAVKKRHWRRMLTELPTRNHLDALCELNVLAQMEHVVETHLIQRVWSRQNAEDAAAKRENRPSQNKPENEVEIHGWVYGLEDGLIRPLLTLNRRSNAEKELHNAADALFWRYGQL
The experiment in a line: stopped-flow CO2 hydrase assay. The experiment is classed as biochemical. The following applies: 20 mM TRIS pH 8.3, 20 mM Na2SO4, CO2 1.7-17 mM, 15 min preincubation at room temperature.

With `OB1OCc2ccc(NC(=S)NCCc3ccccc3)cc21` [compound 14, 14], the Ki was determined as 72.8 µM at TcCA and 3.2 µM at LdcCA.
For `OB1OCc2ccc(NC(=S)Nc3ccc(F)cc3)cc21` [compound 20, 20], in that order: 19.7 µM and 0.66 µM.
Consider `Nc1ccc2c(c1)B(O)OC2` [compound 3, 6-amino benzoxaborole 3], for which the Ki on TcCA is > 100 µM; at LdcCA, 2.37 µM.
For `OB1OCc2ccccc21` [compound 1, benzoxaborole 1], in that order: > 100 µM and 3.79 µM.
In the same order, the values of `O=[N+]([O-])c1ccc(NC(=S)Nc2ccc3c(c2)B(O)OC3)cc1` [compound 18, 18] are 46.8 µM and 0.91 µM.
In the same order, the values of `O=C(NCc1ccccc1)Nc1ccc2c(c1)B(O)OC2` [compound 4, 4] are 75.1 µM and 2.04 µM.
Turning to `Cc1ccc(NC(=S)Nc2ccc3c(c2)B(O)OC3)cc1` [compound 15, 15], the Ki at TcCA is 32.5 µM; at LdcCA, 0.67 µM.
In the same order, the values of `OB1OCc2cc(F)ccc21` [Tavaborole, reference compound] are 60.5 µM and 2.54 µM.
For `O=[N+]([O-])c1ccc2c(c1)B(O)OC2` [compound 2, 6-nitro benzoxaborole 2], in that order: > 100 µM and 4.01 µM.
For `OB1OCc2ccc(NC(=S)Nc3ccc4ccccc4c3)cc21` [compound 16, 16], in that order: 58.8 µM and 3.06 µM.
`OB1OCc2ccc(NC(=S)NCc3ccccc3)cc21` [compound 19, 19]: the Ki at TcCA came to 59.6 µM; on LdcCA, 4.37 µM.
For `OB1OCc2ccc(NC(=S)NCc3ccco3)cc21` [compound 21, 21], in that order: 42.1 µM and 4.36 µM.
For `COc1ccc(NC(=S)Nc2ccc3c(c2)B(O)OC3)cc1` [compound 17, 17], in that order: 12.6 µM and 0.59 µM.
For `OB1OCc2ccc(NC(=S)Nc3ccc(C(F)(F)F)cc3)cc21` [compound 22, 22], in that order: 16.6 µM and 0.85 µM.
For the compound `OB1OCc2ccc(NC(=S)Nc3ccccc3)cc21` [compound 23, phenylthioureido benzoxaborole 23], the inhibitory constant (Ki) was determined as 23.4 µM on TcCA and 0.65 µM at LdcCA.
For `O=C(Nc1ccc(F)cc1)Nc1ccc2c(c1)B(O)OC2` [compound 9, 9], in that order: 24 µM and 0.78 µM.
In the same order, the values of `COc1ccc(C)cc1NC(=O)Nc1ccc2c(c1)B(O)OC2` [compound 12, 12] are 38.6 µM and 0.67 µM.
`O=C(Nc1ccccc1)Nc1ccc2c(c1)B(O)OC2` [compound 6, phenylureido benzoxaborole 6]: the Ki amounted to 32.3 µM at TcCA and 0.74 µM on LdcCA.
In the same order, the values of `O=C(Nc1ccc2c(c1)B(O)OC2)Nc1c(Cl)cc(Cl)cc1Cl` [compound 11, 11] are 69.5 µM and 3.85 µM.
With `CC(=O)c1ccc(NC(=O)Nc2ccc3c(c2)B(O)OC3)cc1` [compound 13, 13], the figures for the Ki at TcCA and at LdcCA were 33.6 µM and 0.48 µM, respectively.
In the same order, the values of `Cc1cc(Cl)cc(CNC(=O)Nc2ccc3c(c2)B(O)OC3)c1` [compound 5, 5] are 87.6 µM and 4.3 µM.
For `O=C(Nc1ccc(Cl)cc1)Nc1ccc2c(c1)B(O)OC2` [compound 7, 7], in that order: 37.8 µM and 0.62 µM.
For `O=C(Nc1ccc(C(F)(F)F)cc1)Nc1ccc2c(c1)B(O)OC2` [compound 10, 10], in that order: 60.7 µM and 2.59 µM.
In the case of `O=C(NCc1ccco1)Nc1ccc2c(c1)B(O)OC2` [compound 8, 8], the inhibition constant (Ki) on TcCA is 67.6 µM; on LdcCA it was 3.54 µM.
